In patent US20050228046A1, “Alkylamine as an antimicrobial agent in ophthalmic compositions” (ADVANCED MEDICAL OPTICS, INC., priority 2004, published 2005):

Test system: five FDA/ISO specified test organisms
Assay: Antimicrobial activity against the five-microbial panel, FDA/ISO disinfection criteria
Assay type: cell-based
Conditions: for stand-alone criteria: 10 ppm MA
Description: The following is the procedure by which various antimicrobial agents and solutions are tested for their ability to reduce microbial loads over short periods of time, typically 24 hours and less. The procedure is a basic microbiology challenge test, which involves the inoculation of test product aliquots with a known number of viable cells of several test organisms, and assay for the survivors at various time intervals. The results are used to calculate log drops at soak times and construct kill-curves (graphs of survivors versus time) if desired. Candida albicans, ATCC 10231, is one of five organisms specified per FDA and ISO/CLI tests for the testing of contact lens disinfectants (FDA Premarket Notification (510k) Guidance Document for Contact Lens Care Products, Appendix B, Apr. 1, 1997 and ISO/FDIS 14729: Ophthalmic optics-Contact lens care products-Microbiological requirements and test methods for products and regimens for hygienic management of contact lenses, January 2001). Contact lens disinfectants are also known as contact lens multi-purpose solutions when they are used for rinsing, cleaning, disinfection, storage and rewetting contact lenses. The five FDA/ISO specified test organisms are listed below: • Serratia marcescens, ATCC 13880 • Staphylococcus aureus, ATCC 6538 • Pseudomonas aeruginosa, ATCC 9027 • Candida albicans, ATCC 10231 • Fusarium solani, ATCC 36031 Candida albicans is often the most resistant of the five organisms to commonly used cationic antimicrobial agents in contact lens multi-purpose solutions. Thus, achievement of adequate antimicrobial activity against Candida is often the most difficult task to pass a particular disinfection efficacy standard. FDA and ISO guidelines specify two disinfection efficacy standards, indicated in the table below: Stand Alone Disinfectant (Primary) Criteria: [table] The specific test procedure for testing antimicrobial activity against the five FDA/ISO specified test organisms is as follows (C. albicans is provided as a specific example): Test samples are sterile-filtered through a 0.22 micron sterile filter into sterile plastic high density polyethylene bottles or plastic flasks. A 10-mL aliquot of test sample is aseptically transferred into a sterile polystyrene plastic test tube. Sterile saline (0.90 w/v % NaCl) with 0.05 w/v % Polysorbate 80 (SS+TWEEN) is transferred into a separate control tube. All samples and control are stored at 20-25° C. throughout the duration of the test.

For `CCCCCCCCCCCCCCN` [Myristylamine], the stand-alone criteria (Tween 80:MA ratio 7.4) was “fail to meet the stand-alone criteria”, the stand-alone criteria (Tween 80:MA ratio 7.4, with addition of Polyquaternium-1) was “can still be a stand-alone disinfectant product” and the anti-bacteria activity (TPGS:MA ratio of 40) was “lost considerably”. For the same compound, the “anti-fungal activity (Ca and Fs)” value (TPGS:MA ratio of up to 60) was “still seen”.
